Target: T1, human CRTH2 receptor (Homo sapiens, UniProt Q9Y5Y4, V204A)
T1 construct: expressed in transfected cells; host or cells: COS-7 (transient transfection)
T1 sequence (Q9Y5Y4 1-395 V204A): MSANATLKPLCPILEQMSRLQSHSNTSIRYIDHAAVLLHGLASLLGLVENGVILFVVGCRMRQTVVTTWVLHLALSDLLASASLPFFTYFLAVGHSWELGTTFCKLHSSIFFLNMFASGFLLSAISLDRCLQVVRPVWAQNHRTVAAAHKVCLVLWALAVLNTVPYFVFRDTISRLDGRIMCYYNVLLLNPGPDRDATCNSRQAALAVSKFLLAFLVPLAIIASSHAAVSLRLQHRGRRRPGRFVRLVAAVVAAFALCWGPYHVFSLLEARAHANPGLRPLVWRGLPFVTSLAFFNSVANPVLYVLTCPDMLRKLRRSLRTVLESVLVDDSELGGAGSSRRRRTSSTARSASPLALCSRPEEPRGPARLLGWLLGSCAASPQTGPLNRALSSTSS
Test: CRTH2 receptor binding assay ([3H]PGD2 competition on whole transfected cells)
Conditions: competition binding with 0.1 nM [3H]PGD2, whole cells expressing CRTH2, 3 h at 4° C.
From the text: Generation/origin of the cDNA Constructs. The coding sequence of the human CRTH2 receptor (genbank accession no NM_004778) was amplified by PCR from a human hippocampus cDNA library and inserted into the pcDNA3.1(+) expression vector (invitrogen) via 5′ HindIII and 3′ EcoRI. The sequence identity of the construct was verified by restriction endonuclease digests and sequencing in both directions on an ABI Prism (Applied Biosystems, Foster City, Calif.).
Cell Culture and Transfection. COS-7 cells were grown in Dulbecco's modified Eagle's medium (DMEM) 1885 supplemented with 10% fetal bovine serum, 100 units/ml penicillin, […] streptomycin, and kept at 37° C. in a 10% CO2 atmosphere. HEK293 cells were maintained in Minimum Essential medium (MEM) supplemented with 10% (v/v) heat inactivated fetal calf serum (HIFCS), 2 mM Glutamax™-I, 1% non essential amino acids (NEAA), 1% sodium pyruvate and 10 μg/ml gentamicin. For binding experiments, COS7 cells were transiently transfected with the CRTH2 receptor using a calcium phosphate-DNA coprecipitation method with the addition of chloroquine (as described by Holst B, Hastrup H, Raffetseder U, Martini L, Schwartz T W. J Biol. Chem. 2001 Jun. 8; 276(23):19793-9.)
Binding assay. 24 h after transfection COS-7 cells were seeded into 96 well plates at a density of 30.000 cells/well. Competition binding experiments on whole cells were then performed about 18-24 h later using 0.1 nM [^3H]PGD2 (NEN, 172 Ci/mmol) in a binding buffer consisting of HBSS (GIBCO) and 10 mM HEPES. Competing ligands were diluted in DMSO which was kept constant at 1% (v/v) of the final incubation volume. Total and nonspecific binding were determined in the absence and presence of 10 μM PGD2. Binding reactions were routinely conducted for 3 h at 4° C. and terminated by 2 washes (100 μl each) with ice cold binding buffer. Radioactivity was determined by liquid scintillation counting in a TOPCOUNTER (Packard) following over night incubation in Microscint 20. Stable HEK293 cells were seeded at a density of 30.000 cells/well 18-24 h prior to the binding assay which was performed essentially as described for COS7 cells above. Determinations were made in duplicates.
Curve analysis was performed with the GraphPadPrism software 3.0 (Graphpad Prism Inc., San Diego, USA) and IC50 values were calculated as a measure of the antagonistic potencies.

SMILES | IC50
O=C(Nc1ccccc1C(=O)O)c1ccc(Br)c(S(=O)(=O)Nc2ccc(Br)cc2)c1 [B54] | < 500 nM
Cc1ccc(C(=O)Nc2ccccc2C(=O)O)cc1S(=O)(=O)N1CCCCC1 [B72] | < 500 nM
O=C(Nc1ccc(Br)cc1C(=O)O)c1cccc(S(=O)(=O)Nc2ccc(Cl)cc2)c1 [B28, 5-Bromo-2-[3-(4-chlorophenylsulfamoyl)benzoylamino]benzoic acid] | < 500 nM
Cc1ccc(C(=O)Nc2ccccc2C(=O)O)cc1S(=O)(=O)Nc1ccc(Br)cc1 [B52] | < 500 nM
O=C(Nc1ccccc1C(=O)O)c1cccc(S(=O)(=O)N2CCCCC2)c1 [B81] | 500 to 5000 nM
O=C(Nc1ccc(Cl)cc1C(=O)O)c1cccc(S(=O)(=O)Nc2ccc(Cl)cc2)c1 [B30, 5-Chloro-2-[3-(4-chlorophenylsulfamoyl)benzoylamino]benzoic acid] | < 500 nM
O=C(Nc1ccccc1C(=O)O)c1cccc(S(=O)(=O)N2CCCC2)c1 [B74] | > 5000 nM
O=C(Nc1ccccc1C(=O)O)c1cccc(S(=O)(=O)Nc2ccc(Br)cc2)c1 [B55] | < 500 nM
O=C(Nc1ccccc1C(=O)O)c1ccc(Br)c(S(=O)(=O)Nc2ccc(Cl)nc2)c1 [B18, 2-[4-Bromo-3-(6-chloropyridin-3-ylsulfamoyl)benzoylamino]benzoic acid] | 500 to 5000 nM
Cc1ccc(C(=O)Nc2ccccc2C(=O)O)cc1S(=O)(=O)NC1CCCCC1 [B73] | 500 to 5000 nM
O=C(Nc1ccc(Br)cc1C(=O)O)c1cccc(S(=O)(=O)Nc2ccc(Cl)nc2)c1 [B13, 5-Bromo-2-[3-(6-chloropyridin-3-ylsulfamoyl)benzoylamino]benzoic acid] | 500 to 5000 nM
CCN(CC)S(=O)(=O)c1cc(C(=O)Nc2ccccc2C(=O)O)ccc1OC [B76] | 500 to 5000 nM
O=C(Nc1ccc(Br)cc1C(=O)O)c1cccc(S(=O)(=O)Nc2ccc(Br)cc2)c1 [B15, 5-Bromo-2-[3-(4-bromophenylsulfamoyl)benzoylamino]benzoic acid] | < 500 nM

The next lines start with the values.

IC50 | SMILES
500 to 5000 nM | O=C(CCc1ccccc1)Nc1cccc(C(=O)Nc2ccccc2C(=O)O)c1 [B4, 2-[3-(3-Phenylpropionylamino)benzoylamino]benzoic acid]
500 to 5000 nM | Cc1c(S(=O)(=O)Nc2cccc(Oc3ccccc3)c2)csc1C(=O)Nc1ccccc1C(=O)O [B22, 2-[3-Methyl-4-(3-phenoxyphenylsulfamoyl)thiophene-2-carbonylamino]-benzoic acid]
500 to 5000 nM | COc1cccc(OC)c1C(=O)Nc1cccc(C(=O)Nc2ccccc2C(=O)O)c1 [B38]
500 to 5000 nM | C/C(=C\c1ccccc1)C(=O)Nc1cccc(C(=O)Nc2ccccc2C(=O)O)c1 [B6, 2-[3-((E)-2-Methyl-3-phenylacryloylamino)benzoylamino]benzoic acid]
< 500 nM | O=C(COc1ccc(Cl)cc1)Nc1cccc(C(=O)Nc2ccccc2C(=O)O)c1 [B1, 2-{3-[2-(4-Chlorophenoxy)acetylamino]benzoylamino}benzoic acid]
500 to 5000 nM | COc1cc(C(=O)Nc2cccc(C(=O)Nc3ccccc3C(=O)O)c2)cc(OC)c1OC [B34]
500 to 5000 nM | O=C(Nc1ccccc1C(=O)O)c1cccc(NC(=O)c2cccs2)c1 [B33]
500 to 5000 nM | O=C(COCc1ccccc1)Nc1cccc(C(=O)Nc2ccccc2C(=O)O)c1 [B10, 2-[3-(2-Benzyloxyacetylamino)benzoylamino]benzoic acid]
< 500 nM | CCCOc1ccc(C(=O)Nc2cccc(C(=O)Nc3ccccc3C(=O)O)c2)cc1 [B40]
< 500 nM | O=C(CSCc1ccccc1)Nc1cccc(C(=O)Nc2ccccc2C(=O)O)c1 [B42]
500 to 5000 nM | CCOc1ccc(NS(=O)(=O)c2cccc(C(=O)Nc3ccccc3C(=O)O)c2)cc1 [B61]
500 to 5000 nM | COc1ccc(C(=O)Nc2cccc(C(=O)Nc3ccccc3C(=O)O)c2)cc1OC [B9, 2-[3-(3,4-Dimethoxybenzoylamino)benzoylamino]benzoic acid]
> 5000 nM | O=C(Nc1ccccc1C(=O)O)c1cccc(NC(=O)c2ccco2)c1 [B35]
< 500 nM | O=C(COc1ccc(Cl)cc1Cl)Nc1cccc(C(=O)Nc2ccccc2C(=O)O)c1 [B3, 2-{3-[2-(2,4-Dichlorophenoxy)acetylamino]benzoylamino}-benzoic acid]
